In ChEMBL document CHEMBL3397033, “Bioactive benzofuran derivatives: moracins A-Z in medicinal chemistry” (Eur J Med Chem, 2015):
≈ marks a conversion by molar mass, not a printed value.

Columns and labels:
Staphylococcus aureus [1] = experiment: Antimicrobial activity against methicillin-sensitive Staphylococcus aureus; assay type: functional
Bacillus subtilis = experiment: Antimicrobial activity against Bacillus subtilis; assay type: functional
Pseudomonas aeruginosa [2] = experiment: Antimicrobial activity against Pseudomonas aeruginosa; assay type: functional
RAW264.7 [3] = experiment: Antiinflammatory activity against mouse RAW264.7 cells assessed as reduction of LPS-induced NO production; assay type: functional, cell-based
Tyrosinase = Tyrosinase (Agaricus bisporus, UniProt O42713); experiment: Inhibition of mushroom tyrosinase
Sequence of Tyrosinase (O42713 whole entry): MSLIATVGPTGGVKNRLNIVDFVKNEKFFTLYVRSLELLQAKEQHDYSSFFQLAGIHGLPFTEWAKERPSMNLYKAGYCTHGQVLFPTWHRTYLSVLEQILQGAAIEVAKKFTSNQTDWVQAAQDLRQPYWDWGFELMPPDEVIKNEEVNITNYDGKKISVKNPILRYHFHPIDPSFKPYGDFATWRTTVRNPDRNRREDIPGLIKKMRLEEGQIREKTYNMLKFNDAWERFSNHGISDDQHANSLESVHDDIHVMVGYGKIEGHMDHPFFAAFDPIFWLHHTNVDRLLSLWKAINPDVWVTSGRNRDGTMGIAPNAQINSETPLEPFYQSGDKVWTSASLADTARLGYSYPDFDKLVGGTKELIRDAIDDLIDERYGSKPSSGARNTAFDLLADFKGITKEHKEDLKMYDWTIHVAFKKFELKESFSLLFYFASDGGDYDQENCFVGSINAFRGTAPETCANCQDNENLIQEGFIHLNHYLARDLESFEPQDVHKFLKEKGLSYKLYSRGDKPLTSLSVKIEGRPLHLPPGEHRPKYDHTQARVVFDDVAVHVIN

RAW264.7 [4] = experiment: Antiinflammatory activity against mouse RAW264.7 cells assessed as reduction of IFNgamma-induced NO production; assay type: functional, cell-based
Escherichia coli [5] = experiment: Antimicrobial activity against Escherichia coli; assay type: functional
Klebsiella pneumoniae [6] = experiment: Antimicrobial activity against Klebsiella pneumoniae; assay type: functional
Staphylococcus aureus [7] = experiment: Antimicrobial activity against methicillin-resistant Staphylococcus aureus; assay type: functional
Micrococcus luteus = experiment: Antimicrobial activity against Micrococcus luteus; assay type: functional
[8] = Cytotoxicity against human Hep3B cells assessed as cell viability after 24 hrs by MTT assay; assay type: cell-based, Hep 3B2
[9] = Antifungal activity against Diaporthe nomurai; assay type: functional
[10] = Antifungal activity against Fusarium roseum; assay type: functional
[11] = Antifungal activity against Cochliobolus miyabeanus; assay type: functional; conditions: Bipolaris oryzae
[12] = Antifungal activity against Stigmina mori; assay type: functional
Rosellinia necatrix = experiment: Antifungal activity against Rosellinia necatrix; assay type: functional
[13] = Antifungal activity against Fusarium solani f. sp. mori; assay type: functional
[14] = Antifungal activity against Fusarium lateritium f. sp. mori; assay type: functional
[15] = Inhibition of alpha-glucosidase (unknown origin); set-up: species or system Homo sapiens
[16] = Cytotoxicity against human HCT8 cells after 96 hrs by MTT assay; assay type: functional, cell-based; conditions: HCT-8, 96 h
A549 = experiment: Cytotoxicity against human A549 cells after 96 hrs by MTT assay; assay type: functional, cell-based; conditions: A549, 96 h
A2780 = experiment: Cytotoxicity against human A2780 cells after 96 hrs by MTT assay; assay type: functional, cell-based; conditions: A2780, 96 h
[17] = Cytotoxicity against human Bel7402 cells after 96 hrs by MTT assay; assay type: functional, cell-based; conditions: Bel-7402, 96 h
[18] = Cytotoxicity against human BGC823 cells after 96 hrs by MTT assay; assay type: functional, cell-based; conditions: BGC-823, 96 h
Morus alba = experiment: Antioxidant activity in mulberry leaves assessed as UV-stress-induced free radical scavenging activity measured as inhibition of blue formazan at 100 uM; assay type: functional
Staphylococcus aureus [19] = experiment: Antimicrobial activity against Staphylococcus aureus by liquid microdilution assay; assay type: functional
[20] = Antioxidant activity assessed as DPPH radical scavenging activity measured as discoloration at 50 ug/ml; assay type: physicochemical
Klebsiella pneumoniae [21] = experiment: Microbicidal activity against Klebsiella pneumoniae by liquid microdilution assay; assay type: functional
Enterococcus faecalis [22] = experiment: Microbicidal activity against Streptococcus faecalis by liquid microdilution assay; assay type: functional
Microsporum audouinii [23] = experiment: Antimicrobial activity against Microsporum audouinii by liquid microdilution assay; assay type: functional
[24] = Antioxidant activity assessed as DPPH radical scavenging activity measured as discoloration at 25 ug/ml; assay type: physicochemical
Bacillus cereus [25] = experiment: Microbicidal activity against Bacillus cereus by liquid microdilution assay; assay type: functional
Escherichia coli [26] = experiment: Microbicidal activity against Escherichia coli by liquid microdilution assay; assay type: functional
Pseudomonas aeruginosa [27] = experiment: Microbicidal activity against Pseudomonas aeruginosa by liquid microdilution assay; assay type: functional
[28] = Antioxidant activity assessed as DPPH radical scavenging activity measured as discoloration at 12.5 ug/ml; assay type: physicochemical
Enterococcus faecalis [29] = experiment: Antimicrobial activity against Streptococcus faecalis by liquid microdilution assay; assay type: functional
Staphylococcus aureus [30] = experiment: Microbicidal activity against Staphylococcus aureus by liquid microdilution assay; assay type: functional
[31] = Antioxidant activity assessed as DPPH radical scavenging activity measured as discoloration at 100 ug/ml; assay type: physicochemical
[32] = Antioxidant activity assessed as DPPH radical scavenging activity; assay type: physicochemical
Microsporum audouinii [33] = experiment: Microbicidal activity against Microsporum audouinii by liquid microdilution assay; assay type: functional
Salmonella typhi [34] = experiment: Antimicrobial activity against Salmonella typhi by liquid microdilution assay; assay type: functional, Salmonella enterica subsp. enterica serovar Typhi; conditions: Salmonella enterica
Shigella dysenteriae [35] = experiment: Microbicidal activity against Shigella dysenteriae by liquid microdilution assay; assay type: functional
Pseudomonas aeruginosa [36] = experiment: Antimicrobial activity against Pseudomonas aeruginosa by liquid microdilution assay; assay type: functional
Bacillus cereus [37] = experiment: Antimicrobial activity against Bacillus cereus by liquid microdilution assay; assay type: functional
Salmonella typhi [38] = experiment: Microbicidal activity against Salmonella typhi by liquid microdilution assay; assay type: functional, Salmonella enterica subsp. enterica serovar Typhi; conditions: Salmonella enterica
Escherichia coli [39] = experiment: Antimicrobial activity against Escherichia coli by liquid microdilution assay; assay type: functional
Klebsiella pneumoniae [40] = experiment: Antimicrobial activity against Klebsiella pneumoniae by liquid microdilution assay; assay type: functional
Shigella dysenteriae [41] = experiment: Antimicrobial activity against Shigella dysenteriae by liquid microdilution assay; assay type: functional

CC1(C)Oc2cc3oc(-c4cc(O)cc(O)c4)cc3cc2CC1O (stereo not drawn) [(+/-)-MORACIN P]
MIC (Staphylococcus aureus [1]): 50 µg/mL (≈ 153 µM)
MIC (Bacillus subtilis): 100 µg/mL (≈ 306 µM)
MIC (Pseudomonas aeruginosa [2]): > 100 µg/mL
IC50 (RAW264.7 [3]): 19.3 µM
IC50 (Tyrosinase): 2.9 µM
IC50 (RAW264.7 [4]): 19.3 µM
MIC (Escherichia coli [5]): > 100 µg/mL
MIC (Klebsiella pneumoniae [6]): > 100 µg/mL
MIC (Staphylococcus aureus [7]): 100 µg/mL (≈ 306 µM)
MIC (Micrococcus luteus): 100 µg/mL (≈ 306 µM)
IC50 [8]: > 30 µM

CC1(C)Oc2cc3oc(-c4cc(O)cc(O)c4)cc3cc2C(O)C1O (stereo not drawn)
MIC (Pseudomonas aeruginosa [2]): > 100 µg/mL
MIC (Escherichia coli [5]): > 100 µg/mL
MIC (Klebsiella pneumoniae [6]): > 100 µg/mL

COc1cc2oc(-c3cc(O)cc(O)c3)cc2cc1CCC(C)(C)O
MIC (Pseudomonas aeruginosa [2]): > 100 µg/mL
MIC (Escherichia coli [5]): > 100 µg/mL
MIC (Klebsiella pneumoniae [6]): > 100 µg/mL

CC1=CCc2c(c(O)cc3cc(-c4cc(O)cc(O)c4)oc23)OC1
MIC (Pseudomonas aeruginosa [2]): > 100 µg/mL
MIC (Escherichia coli [5]): > 100 µg/mL
MIC (Klebsiella pneumoniae [6]): > 100 µg/mL

CC1(C)C=Cc2c(O)cc(-c3cc4ccc(O)cc4o3)cc2O1 [MORACIN D]
MIC [9]: 7 µg/mL (≈ 22.7 µM)
MIC (Pseudomonas aeruginosa [2]): > 100 µg/mL
MIC [10]: 7 µg/mL (≈ 22.7 µM)
IC50 (RAW264.7 [3]): 18 µM
MIC [11]: 14 µg/mL (≈ 45.4 µM)
MIC [12]: 56 µg/mL (≈ 182 µM)
MIC (Rosellinia necatrix): < 3.5 µg/mL
MIC [13]: 112 µg/mL (≈ 363 µM)
IC50 (RAW264.7 [4]): 18 µM
MIC (Escherichia coli [5]): > 100 µg/mL
MIC (Klebsiella pneumoniae [6]): > 100 µg/mL
MIC [14]: 28 µg/mL (≈ 90.8 µM)
IC50 [15]: 2.54 µM

O=Cc1cc2cc(-c3cc(O)cc(O)c3)oc2cc1O
IC50 [16]: 6.3 µg/mL (≈ 23.3 µM)
IC50 (A549): > 10 µg/mL
IC50 (A2780): 6.9 µg/mL (≈ 25.5 µM)
MIC (Pseudomonas aeruginosa [2]): > 100 µg/mL
IC50 [17]: 6.8 µg/mL (≈ 25.2 µM)
IC50 [18]: 7.6 µg/mL (≈ 28.1 µM)
MIC (Escherichia coli [5]): > 100 µg/mL
MIC (Klebsiella pneumoniae [6]): > 100 µg/mL

CC1(C)C=Cc2c(c(O)cc3cc(-c4cc(O)cc(O)c4)oc23)O1
MIC (Pseudomonas aeruginosa [2]): > 100 µg/mL
MIC (Escherichia coli [5]): > 100 µg/mL
MIC (Klebsiella pneumoniae [6]): > 100 µg/mL

CC(C)=CCc1cc2cc(-c3cc(O)cc(O)c3)oc2cc1O [MORACIN N]
IC50 [16]: > 10 µg/mL
inhibition (Morus alba): 76%
IC50 (A549): > 10 µg/mL
IC50 (A2780): > 10 µg/mL
MIC (Pseudomonas aeruginosa [2]): > 100 µg/mL
IC50 [17]: > 10 µg/mL
IC50 [18]: > 10 µg/mL
IC50 (Tyrosinase): 0.924 µM
MIC (Escherichia coli [5]): > 100 µg/mL
MIC (Klebsiella pneumoniae [6]): > 100 µg/mL
IC50 [15]: 2.76 µM

COc1cc2cc(-c3cc(O)cc(O)c3)oc2cc1OC
MIC [9]: 1000 µg/mL (≈ 3490 µM)
MIC (Pseudomonas aeruginosa [2]): > 100 µg/mL
MIC [10]: 50 µg/mL (≈ 175 µM)
MIC [11]: 100 µg/mL (≈ 349 µM)
MIC [12]: 50 µg/mL (≈ 175 µM)
MIC (Rosellinia necatrix): 50 µg/mL (≈ 175 µM)
MIC [13]: 1000 µg/mL (≈ 3490 µM)
MIC (Escherichia coli [5]): > 100 µg/mL
MIC (Klebsiella pneumoniae [6]): > 100 µg/mL
MIC [14]: 200 µg/mL (≈ 699 µM)

COc1cc2c(c3oc(-c4cc(O)cc(O)c4)cc13)CC=C(C)CO2
MIC [9]: 50 µg/mL (≈ 148 µM)
MIC (Pseudomonas aeruginosa [2]): > 100 µg/mL
MIC [10]: 15 µg/mL (≈ 44.3 µM)
MIC [11]: 50 µg/mL (≈ 148 µM)
MIC [12]: 50 µg/mL (≈ 148 µM)
MIC (Rosellinia necatrix): 15 µg/mL (≈ 44.3 µM)
MIC [13]: 1000 µg/mL (≈ 2960 µM)
MIC (Escherichia coli [5]): > 100 µg/mL
MIC (Klebsiella pneumoniae [6]): > 100 µg/mL
MIC [14]: 100 µg/mL (≈ 296 µM)

CC(C)(O)C(O)Cc1cc2cc(-c3cc(O)cc(O)c3)oc2cc1O (stereo not drawn)
MIC (Staphylococcus aureus [19]): 312 µg/mL (≈ 906 µM)
Activity [20]: 48%
MBC (Klebsiella pneumoniae [21]): 625 µg/mL (≈ 1810 µM)
MBC (Enterococcus faecalis [22]): 312 µg/mL (≈ 906 µM)
MIC (Microsporum audouinii [23]): 312 µg/mL (≈ 906 µM)
MIC (Pseudomonas aeruginosa [2]): > 100 µg/mL
Activity [24]: 38.2%
MBC (Bacillus cereus [25]): 625 µg/mL (≈ 1810 µM)
MBC (Escherichia coli [26]): 625 µg/mL (≈ 1810 µM)
MBC (Pseudomonas aeruginosa [27]): 39 µg/mL (≈ 113 µM)
IC50 (RAW264.7 [3]): 14.3 µM
Activity [28]: 34.6%
MIC (Enterococcus faecalis [29]): 156 µg/mL (≈ 453 µM)
MBC (Staphylococcus aureus [30]): 625 µg/mL (≈ 1810 µM)
Activity [31]: 50%
EC50 [32]: 7.17 µg/mL (≈ 20.8 µM)
MFC (Microsporum audouinii [33]): 625 µg/mL (≈ 1810 µM)
MIC (Salmonella typhi [34]): 156 µg/mL (≈ 453 µM)
MBC (Shigella dysenteriae [35]): 312 µg/mL (≈ 906 µM)
MIC (Pseudomonas aeruginosa [36]): 10 µg/mL (≈ 29 µM)
MIC (Bacillus cereus [37]): 156 µg/mL (≈ 453 µM)
MBC (Salmonella typhi [38]): 312 µg/mL (≈ 906 µM)
MIC (Escherichia coli [39]): 78 µg/mL (≈ 227 µM)
IC50 (RAW264.7 [4]): 14.3 µM
MIC (Escherichia coli [5]): > 100 µg/mL
MIC (Klebsiella pneumoniae [6]): > 100 µg/mL
MIC (Klebsiella pneumoniae [40]): 312 µg/mL (≈ 906 µM)
MIC (Shigella dysenteriae [41]): 78 µg/mL (≈ 227 µM)
